≈ marks a conversion by molar mass, not a printed value. Each block holds one molecule with its values, some of them ahead of it.
Legend:
V79/ADM [1] = assay: Anti-cancer activity potentiating action, colony formation, V79/ADM resistant cells (A-III); type: cell-based, Chinese hamster; conditions: V79/ADM; for IC50: Cricetulus griseus
Experimental: (§1) The anti-cancer activity potentiating action of the malate of formula (I) was examined using Chinese hamster cells (sensitive cell line V79/S and ADM-resistant cell line V79/ADM), human hepatoma cells (sensitive cell line PLC/S and colchicin-resistant cell line PLC/Col) and mouse leukemia cells (sensitive cell line L5178Y/S) and aclarubicin-resistant cell line L5178Y/ACR).
(§2) Of these tumor cells, the sensitive cells (400 cells) and the resistant cells (600 cells) were each incubated in 10 ml of Eagle's MEM medium containing 10% bovine serum for 24 hours, and then each of the test drugs indicated in Table 6 was added. Thereafter, the incubation was carried out for 9 days. The concentration (IC50 : micrograms/ml) of the test drug required to inhibit 50% of the colony formation (proliferation) of the tumor cells was calculated.
(§3) (A) Chinese hamster V79 cells
(§4) As anti-cancer agents, there were used adriamycin (ADM), aclarubicin (ACR), actinomycin D (ACD), 5-fluorouracil (5-FU), cytarabin (Ara-C), cisplatin (CDDP), methotrexate (MTX), mitomycin C (MMC), nimustine (ACNU), mitoxantrone, etoposide ([…]), vincristine (VCR), bleomycin (BLM) and peplomycin (PEP). For the sensitive cells, the anti-cancer agents were used in combination with 10 micrograms/ml of the malate of formula (I), and for the resistant cells, the anti-cancer agents were used in combination with the malate of formula (I) 3 micrograms/ml, 5 micrograms/ml, and 10 micrograms/ ml.

Meth-A = assay: Tumor proliferation inhibiting activity, Meth-A (A-IV); type: in vivo, BALB/c rats; conditions: MMC 1.0 mg/kg/day, days 1-5
Experimental: Female BALB/c rats (7 weeks old), 8 per group, were used. Tumor cells (Meth-A) induced by methyl cholanthrene were transplanted intraperitoneally to the rats, and then the malate of formula (I) was administered intraperitoneally to the rats. The proliferation inhibiting activity of the malate was examined by comparing the weight of the tumor cells with that of the tumor cells in the non-treated control group.
The dose of the malate of formula (I) was 1.25, 2.5, 5.0, and 10.0 mg/kg/day. Mitomycin C (MMC) was administered as another anti-cancer agent. The weight of the tumor cells was measured, and the proliferation inhibiting activity was determined.
The weight (g) of the tumor with respect to that of the tumor in the control group (T/C, %) after 16 days from the transplantation of the tumor cells, and the number of surviving rats after 16 days are shown in Table 8.

[2] = system: human tumor cells (muscle fibrosarcoma HT-1080); assay: Anti-cancer activity potentiating action in nude mice with HT-1080 (A-VI); type: in vivo, human tumor in ICR nude mice; conditions: MMC 3 mg/kg, days 5, 10, 15, 20; day 36
Experimental: ICR nude mice, 6 per group, were used, and the experiment was conducted substantially in accordance with the procedure described in A-V.
As tumor cells, human tumor cells (muscle fibrosarcoma HT-1080) were used, and 5 days after the transplantation, drug administration was started.
The administration was further performed every 5 days from the day of starting the administration, and the total number of administrations was therefore 4.
Mitomycin C (MMC) was tested by the same way as above.
Thirty-six days after the transplantation of the tumor, a tumor mass was extracted and its weight was measured. From the difference of the weight of the tumor from the non-treated control group, the tumor growth inhibition ratio (%) was calculated.

V79/S [3] = assay: Anti-cancer activity potentiating action, colony formation, V79/S parent cells (A-III); type: cell-based, Chinese hamster; conditions: for IC50: Cricetulus griseus
Experimental: as §1, §2, §3, §4

[4] = system: clinically isolated human cancer cells (lung adenocarcinoma, lung squamous cell carcinoma, osteosarcoma, ovarian carcinoma); assay: Anti-tumor activity on clinically isolated human cancer cells, morphological changes (A-I Part 2); type: cell-based; conditions: 0.2 μg/ml
Experimental: Lung adenocarcinoma, lung squamous cell carcinoma, osteosarcoma and ovarian carcinoma were selected as clinically isolated human cancer cells, and the anti-tumor activities of various drugs were examined. Specifically, various tumor tissues were individually cut to thin pieces by a razor, and by washing in saline by using a 1 mm mesh, the connective tissues were removed. The resulting solution was centrifuged at 1000 rpm for 1 minute to remove necrotizing substances. Washing with saline gave tumor cells.
They were incubated at 37° for 4 to 8 hours. Thereafter, pumping was carried out to disperse the tissue pieces. Then, centrifugation at 1000 rpm for 5 minutes, cell coating and Giemsa staining were performed. The anti-tumor activity of each drug was examined on the basis of observation of the morphological changes of the tumor cells under a microscope.
The experiment was conducted on two examples of each tumor cells (total 8 examples).

V79/S [5] = assay: Colony formation (proliferation) inhibition, sensitive Chinese hamster cells (A-I Part 1); type: cell-based; conditions: V79/S; 9 days; Table 1
Experimental: (§5) Sensitive cell line V79/S and ADM-resistant cell line V79/ADM of the Chinese hamster were used, and sensitive cell line PLC/S and cholchicin-resistant cell line PLC/Col, as human hepatoma cells.
(§6) The sensitive cell lines (400 cells) or the resistant cell lines (600 cells) were each incubated for 24 hours in 10 ml of Eagle's MEM medium containing 10% bovine serum. Each of the drugs indicated in Table 1 below was dissolved in ethanol, and 50 microliters of the resulting solution was added to the medium. The incubation was further carried out for 9 days. The concentration of the drug which inhibits 50% of the colony formation (proliferation) of the tumor cells was calculated.
(§7) V79/S and V79/ADM were tested by using all of the drugs described above, but PLC/S and PLC/Col were tested by using only the malate of formula (I), adriamycin and peplomycin.
(§8) The concentrations (micrograms/ml) required to inhibit 50% of the proliferation of the tumor cells, expressed by IC50, are shown in Table 1.

PLC/Col [6] = assay: Colony formation (proliferation) inhibition, colchicin-resistant human hepatoma cells (A-I Part 1); type: cell-based; conditions: PLC/Col; 9 days; Table 1
Experimental: as §5, §6, §7, §8

PLC/Col [7] = assay: Anti-cancer activity potentiating action, colony formation, PLC/Col resistant cells (A-III); type: cell-based, human; conditions: PLC/Col; with compound (I) 5 μg/ml
Experimental: as §1, §2
(§9) As anti-cancer agents, adriamycin (ADM) and peplomycin (PEP) were used in combination with the malate of formula (I) (5 micrograms/ml).

V79/ADM [8] = assay: Colony formation (proliferation) inhibition, ADM-resistant Chinese hamster cells (A-I Part 1); type: cell-based; conditions: V79/ADM; 9 days; Table 1
Experimental: as §5, §6, §7, §8

PLC/S [9] = assay: Anti-cancer activity potentiating action, colony formation, PLC/S parent cells (A-III); type: cell-based, human; conditions: PLC/S; with compound (I) 5 μg/ml
Experimental: as §1, §2, §9

PLC/S [10] = assay: Colony formation (proliferation) inhibition, sensitive human hepatoma cells (A-I Part 1); type: cell-based; conditions: PLC/S; 9 days; Table 1
Experimental: as §5, §6, §7, §8

B16 melanoma cells = assay: Life prolongation of BDF1 mice with B16 melanoma (A-II Part 1); type: in vivo, mouse (male BDF1); conditions: 0.45 mg/kg i.p., three times every 4 days
Experimental: Three to eight male BDF1 mice having a body weight of 20±3 g were used, and B16 melanoma cells were selected as tumor cells. The melanoma cells were homogenized, and the homogenate was transplanted subcutaneously to the mice in an amount of 0.5 ml/mouse. After 7 days, the malate of formula (I) in accordance with this invention and an anti-cancer agent, neocartinostatin (NCS), were intraperitoneally administered either singly or in combination three times every 4 days in a dose of 5 mg/kg and 0.45 mg/kg for each time. The life prolonging rate of the mice was determined by the treated group/non-treated control group (T/C %).

[11] = V79/S, with compound (I) 10 μg/ml

Molecule: CO[C@@]12[C@H](COC(N)=O)C3=C(C(=O)C(C)=C(N)C3=O)N1C[C@@H]1N[C@@H]12 [MMC, mitomycin C]
- IC50 (V79/ADM [1]; alone, Table 6, read-out: IC50, anti-cancer agent alone): 0.057 µg/mL
- IC50 (V79/ADM [1]; with compound (I) 5 μg/ml, read-out: IC50 in combination with compound (I)): 0.011 µg/mL
- Potentiation activity (V79/ADM [1]; with compound (I) 5 μg/ml): 5.20 times
- Number of surviving animals (Meth-A; 16 days later): 8/8
- T/C (tumor weight) (Meth-A; day 16): 21%
- Tumor weight mean ± S.D. (Meth-A; day 16): 0.347 ± 0.185 g
- Tumor growth inhibition ratio [2]: 47.0%
- Tumor weight [2]: 1.92 ± 0.27
- IC50 (V79/S [3]; read-out: IC50 in combination with compound (I)): 0.01 µg/mL
- IC50 (V79/S [3]; V79/S, alone, Table 6, read-out: IC50, anti-cancer agent alone): 0.02 µg/mL
- Potentiation activity (V79/S [3]; [11]): 2.0 times
- Efficacy ratio (rated significant by Fisher's test) [4]: 0/8

- IC50 (PLC/Col [6]): 0.19 µg/mL (≈ 0.129 µM)
- IC50, anti-cancer agent alone (V79/ADM [1]; alone, Table 6): 0.48 µg/mL
- IC50 in combination with compound (I) (V79/ADM [1]; with compound (I) 3 μg/ml): 0.0157 µg/mL
- IC50 (PLC/S [10]): 0.24 µg/mL (≈ 0.163 µM)
- IC50, anti-cancer agent alone (V79/S [3]; V79/S, alone, Table 6): 1.95 µg/mL
- IC50 in combination with compound (I) (V79/S [3]; [11]): 0.0165 µg/mL
Molecule: Cc1c(N)nc([C@H](CC(N)=O)NC[C@H](N)C(N)=O)nc1C(=O)N[C@H](C(=O)N[C@H](C)[C@@H](O)[C@H](C)C(=O)N[C@H](C(=O)NCCc1nc(-c2nc(C(=O)NCCCN[C@@H](C)c3ccccc3)cs2)cs1)[C@@H](C)O)[C@@H](O[C@@H]1O[C@@H](CO)[C@@H](O)[C@H](O)[C@@H]1O[C@H]1O[C@H](CO)[C@@H](O)[C@H](OC(N)=O)[C@@H]1O)c1c[nH]cn1 [PEP, peplomycin]
- IC50 (V79/S [5]): 1.95 µg/mL (≈ 1.32 µM)
- Potentiation activity (PLC/Col [7]): 6.3 times
- IC50 (V79/ADM [8]): 0.48 µg/mL (≈ 0.326 µM)
- Potentiation activity (V79/ADM [1]; with compound (I) 3 μg/ml): 30.5 times
- Potentiation activity (PLC/S [9]): 3.0 times
- Potentiation activity (V79/S [3]; [11]): 118 times

B1: neocartinostatin (protein, UniProt P0A3R9 35-147, looked up)
Neocarzinostatin: AAPTATVTPSSGLSDGTVVKVAGAGLQAGTAYDVGQCAWVDTGVLACNPADFSSVTADANGSASTSLTVRRSFEGFLFDGTRWGTVDCTTAACQVGLSDAAGNGPEGVAISFN
- T/C (life prolonging rate at M.S.T.) (B16 melanoma cells): 135%

— patent US5004756A, “Anti-cancer activity potentiator” (priority 1988, dated 1991)
